Results on one compound are retold here after patent US12509727B2, “Composition for diagnosis of Sjögren's syndrome” (THE CATHOLIC UNIVERSITY OF KOREA INDUSTRY-ACADEMIC …, priority 2017, dated 2025).

Common to all, as to assay type: in vivo, human
The test system of one assay is LC3B-II mRNA. Briefly: Real-time PCR of conjunctival epithelial cells (impression cytology) after corticosteroid treatment. The following applies: conjunctival epithelial cells of SS DE patients; level before treatment 12.93±4.44; statistically significantly decreased. The procedure:
(§1) IC was carried out 15 minutes after the last stained eye solution was permeated by using a polyethersulfone filter (Suopor 200 membrane, Pall Corporation, Port Washington, New York). The filter paper was cut in half (13×6.5 mm). The sides were attached on the upper side-nasal and the upper side-temporal bulbar conjunctiva, respectively. With 0.05% paraformaldehyde (PFA), the filter attached on the upper side-nasal conjunctiva was transferred into a tube containing 2 ml of PBS for immunostaining. The paper attached on the upper side-temporal conjunctiva was collected from the filter paper up to 3 hours for the RNA extraction.
(§2) RNAs were isolated from IC using TRIzol reagent (Gibco-Invitrogen, Grand Island, New York) according to the modified protocol (Barabino S et al., Immune response in the conjunctival epithelium of patients with dry eye. Experimental eye research 2010; 91: 524-9). […] The […] method was used for relative quantification. […]
(§3) After applying topical corticosteroids to Sjögren's syndrome dry eye patients, change in the clinical parameters was assessed as well as autodigestion marker expression. After one month with topical corticosteroid therapy with artificial tears, OSDI score, Schirmer I value, TBUT, corneal staining, conjunctival staining, and OSS score were measured as in Example 1. […]

A further assay concerns ATG5 mRNA. Described as above. As to conditions: conjunctival epithelial cells of SS DE patients; level before treatment 13.16±4.36; statistically significantly decreased. As to the method:
as §1, §2, §3

The test system of a further assay is LC3B-II/I protein ratio. Briefly: Western blotting of tears, relative concentration measurement, after corticosteroid treatment. As to conditions: tears of SS DE patients; level before treatment 1.87±0.10; statistically significantly decreased. As to the method:
(§4) Tears were collected from the Schirmer strips which absorbed the tear fluid as in Example 1. In order to extract tears, the Schirmer strips were placed in tubes containing extraction buffer (NaCl 0.5 M, Tween 20 0.5% in PBS). After one hour, the strips were transferred to a 0.5 ml tube with a hole at the bottom thereof using a cannula. The tube was inserted into a larger tube (1.5 ml). It was centrifuged at 12,000 rpm for 15 minutes. The centrifugal force caused the fluid to be drawn from the strip. Thus, the tear fluid passed through the center hole at the bottom of the small tube and was collected into the external 1.5 ml tube. The tear fluid was mixed with the sample-loading buffer, heated for 10 minutes, and centrifuged. Then, the protein concentration in the clear isolate was determined by using the BCA protein assay kit (Thermo Fisher Scientific, Rockford, IL). […] The improved chemical luminescence reagent (ECL; Amersham Biosciences, Sweden) was used to detect the protein band. […]
as §3
A general note: Immunoblotting shows a protein as a band on a membrane.

The test system of the next assay is ATG5 protein. Described as above. As to conditions: tears of SS DE patients; level before treatment 5.06±0.31; statistically significantly decreased. As to the method: as §4, §3
The subject of assay [1] is Sjögren's syndrome dry eye patients. Briefly: Clinical evaluation of ocular surface parameters before and after topical corticosteroid treatment. The following applies: SS DE patients, after one month topical corticosteroid with artificial tears, mean ± SD. The procedure:
[…] participated in this Example (FIG. 1): 40 patients with Sjögren's syndrome dry eye (SS DE) (78 eyes), 24 patients with non-Sjögren's syndrome dry eye (non-SS DE) (48 eyes), and 16 normal healthy subjects as controls (25 eyes). 16 patients of the 40 patients with Sjögren's syndrome dry eye were treated with topical corticosteroid (4 times per one day for 1 month, 0.1% fluoromeladone, Sam-II Pharmaceutics Co. Seoul, Korea). […] All patients with Sjögren's syndrome dry eye were diagnosed with primary Sjögren's syndrome by a rheumatologist according to the 2012 Sjögren's International Collaborative Clinical Alliance (SICCA) classification criteria. This study excluded Sjögren's syndrome patients or subjects who had been treated with disease-modifying therapies. Due to the unique prevalence of females and males found in Sjögren's syndrome (F:M=9:1), only female patients participated in the study for the prevention of the data misinterpretation. Exclusion criteria were pregnant women, nurses, contact lens wearers, tear point closure patients, persons with eye surgery within 6 months, persons with acute or chronic eye disease other than dry eye syndrome, persons with concomitant allergies, persons with eyelid abnormalities, persons with Grade 2 or higher dysfunction of the meibomian gland. This study also excluded, as a subject, persons who had received other systemic treatments or other topical treatments other than artificial tears within the past 3 months.
The following ocular surface examinations were conducted on the 82 subjects; Schirmer I test, tear film breakup time (TBUT), ocular surface staining (OSS) score, and ocular surface disease index (OSDI) questionnaire.
The Schirmer I test was performed without anesthesia before injecting the drug into the eye. The standard Schirmer's strips were placed on the side ⅓ of the lower eyelid. After 5 minutes, the strips' wetness was measured by using a millimeter scale of the strips (Eagle Vision, Memphis, TN). Tear strips were cut horizontally and placed in cryovials. They were stored frozen for further analysis. To assess TBUT, one drop of the saline without preservatives was added to a fluorescein strip (Haag-Streit, Koeniz, Switzerland). It was applied to the conjunctiva of the lower eyelid. The patients blinked their eye 3 to 4 times for a few seconds for mixing thoroughly with the dye. Then, the test was conducted by using a slit lamp with cobalt blue light. The time until the defect appeared in the stained tear film was measured and recorded as TBUT. TBUT was measured three times and the score was averaged. OSS scores including conjunctival and corneal staining scores were evaluated according to the SICCA registry ocular examination protocol. First, one drop of 2% sterile fluorescein was put on the conjunctival sac to permeate. After one minute, the corneal staining score was assessed by evaluating fluorescein staining using a slit lamp with cobalt blue filter. The punctate epithelial erosions (PEE) stained with fluorescein were calculated and scored. When there is no PEE, the score is zero. When PEE is 1 to 5, the corneal score is 1; When PEE is 6 to 30, the score is 2; When PEE exceeds 30, the score is 3. Additional points were added when there were one or more fused staining portions, when there was staining in the pupil area of the cornea, or when there were one or more filaments in any part of the cornea. The maximum available score is 6 for each cornea. In order to measure the conjunctival staining score, fluorescein was washed with the saline without preservatives. Then, one drop of 1% Lissamine green dye (Leiter's Pharmacy San Jose, California) was applied to the lower conjunctival fornix of both eyes. […]

In assay [2] the test system is autodigestion marker (ATG5 and LC3B-II) in the conjunctiva. The experiment in a line: Immunostaining of ATG5 and LC3B-II of conjunctiva before and after corticosteroid treatment. As to conditions: SS DE patients after the corticosteroid treatment; representative immunohistochemical images. The procedure: as §1
The IC filter paper having isolated epithelial cells was firmly pressed against a silane-coated slide (Muto Pure Chemicals Co., ltd. Tokyo, Japan). Thus, the epithelial cells were transferred onto the slide. They were used for immunofluorescence staining according to the Baudouins protocol. […]
as §3

In the case of `CC(=O)[C@@]1(O)CC[C@H]2[C@@H]3C[C@H](C)C4=CC(=O)C=C[C@]4(C)[C@@]3(F)[C@@H](O)C[C@@]21C` [corticosteroid, fluoromeladone], the “LC3B-II gene encoding level after corticosteroid treatment” value in the assay with LC3B-II mRNA was approximately 2.57±0.48 times in change. In the assay with ATG5 mRNA, the “ATG5 gene encoding level after corticosteroid treatment” value is recorded as “approximately 1.23±0.27 times in change”. Further, the “LC3B-II/I protein ratio in tears after corticosteroid treatment” value in the assay on LC3B-II/I protein ratio is given as approximately 1.27±0.08 times in change. Besides, the “ATG5 protein (vs β-actin) in tears after corticosteroid treatment” value with ATG5 protein is “approximately 0.88±0.07 times in change”. For the same compound, the “Conjunctival staining score (0-6), after treatment” value in assay [1] (before treatment 2.13 ± 1.90, P 0.0018) stood at 1.06 ± 1.70. Moreover, the “TBUT, after treatment” value in assay [1] (before treatment 2.16 ± 2.22, P 0.0007) turned out to be 3.84 ± 1.90 s. Further, in assay [1] (before treatment 2.34 ± 1.66, P 0.0088), the “Schirmer value, after treatment” value is 3.78 ± 2.41 mm. Also, the “Corneal staining score (0-6), after treatment” value in assay [1] (before treatment 2.78 ± 1.10, P <0.0001) worked out at 1.59 ± 1.21. Also, the “Ocular surface staining score (0-12), after treatment” value in assay [1] (before treatment 4.84 ± 3.08, P <0.0001) was 2.53 ± 2.55. Also, in assay [1] (before treatment 50.19 ± 19.17, P 0.0411), the “OSDI score (0-100), after treatment” value was 39.80 ± 17.89. Besides, the “staining spotting pattern of the autodigestion marker in the conjunctiva” value in assay [2] was “normalized”.
